Where a SMILES comes first, the peptide text is derived from it. [ ]: non-standard residue; d: D form. The star is where a group is joined. Dolaproine = CO[C@@H]([C@@H]1CCCN1)[C@@H](C)C(=O)O; Dil = CC[C@H](C)[C@H](NC)[C@@H](CC(=O)O)OC; X2 = C[C@@H](N*)[C@@H](O)c1ccccc1; NMeV = CN[C@H](C(=O)O)C(C)C
Key:
[1] = Nano-encapsulation (loading) efficiency, PLGA-PEG nanoprecipitation; type: physicochemical; details: PLGA-PEG polymeric micellar formulation
Experimental: Initial experiments determined up to 1 mg of C16 prodrug could be used with the same polymer composition with no detectable loss in loading efficiency. For fluorescence-based imaging and flow-cytometric detection of NP uptake, PLGA-BODIPY630 was used instead of PLGA (described previously).^5 NP drug and Pd compound loadings were determined by absorbance (Nanodrop spectrophotometer), interpolation from a standard curve (R^2>0.99) after 1:10 dilution in DMF. Size and zeta potential measurements were performed using dynamic light scattering (Malvern Zetasizer). Prodrug loading efficiency is defined as the fraction of initial drug used in the nano-precipitation reaction that was successfully encapsulated and recovered in final NP product.

HT1080-EB3-mApple cells = assay: EB3 microtubule comet imaging in live cells; type: cell-based, human; details: individual treatment, 24 h; 1 μM MMAE or C16proMMAE, 35 μM Pd-NP
Experimental: Microtubule imaging. EB3 tracking was performed using an FV1000 confocal laser scanning microscope on a 37° C. heated stage, with XLUMPLFLN 20× (NA 1.0) or LUMFLN 60× (NA 1.1) water-immersion objectives, 1-10× digital zoom, 559-nm diode laser, and BA575-620 emission filter (all Olympus America). […] EB3 tracks were automatically identified and analyzed from time-lapse datasets using u-track software,^35 with tuning of maximum gap number and minimum frame number across datasets to account for differences in image quality; ambiguous and spurious tracks and artifacts were excluded according to requirements for directional continuity (directional persistence as net displacement/path length>0.8) and movement (value>3 pixels). Speed was determined between frames in each track and averaged for each track by computing the mean of the middle 80% of between-frame values. Track overlay figures were produced using a custom python script. Averaged track speeds excluded outliers falling more than 1.5× the interquartile range for each biological replicate.

[2] = cited from earlier work

CC[C@H](C)[C@@H]([C@@H](CC(=O)N1CCC[C@H]1[C@H](OC)[C@@H](C)C(=O)N[C@H](C)[C@@H](O)c1ccccc1)OC)N(C)C(=O)[C@@H](NC(=O)[C@@H](NC)C(C)C)C(C)C [MMAE, monomethyl auristatin E] (H-[NMeV]V[Dil][Dolaproine]-X2)
nano-encapsulation efficiency [1]: undetectable | microtubule comets (prevalence and growth speed) (HT1080-EB3-mApple cells): complete elimination of visible comets | toxicity at equivalent doses [2]: severely toxic and above the maximum tolerated dose

Reference: patent US12636373B2, “Prodrugs with a tridentate self-immolative linker” (The General Hospital Corporation, priority 2018, dated 2026)
